Measurements taken from PubChem BioAssay (NCI).
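Assay format: 96-well plates, 48-hour exposure. The concentration for 50% growth inhibition is given as GI50. TGI is the concentration that stops growth completely.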

How the values were obtained:
Assay in all cases: inhibition of tumour cell growth, NCI panel, 48 h
RPMI-8226 leukemia = tested on: RPMI-8226 leukemia
SN12C renal = tested on: SN12C renal
NCI-H460 lung = tested on: NCI-H460 lung
IGROV1 ovarian = tested on: IGROV1 ovarian
NCI-H23 lung = tested on: NCI-H23 lung
CCRF-CEM leukemia = tested on: CCRF-CEM leukemia
ACHN renal = tested on: ACHN renal
DU-145 prostate = tested on: DU-145 prostate
SF-268 CNS = tested on: SF-268 CNS
OVCAR-4 ovarian = tested on: OVCAR-4 ovarian
OVCAR-5 ovarian = tested on: OVCAR-5 ovarian
SK-MEL-28 melanoma = tested on: SK-MEL-28 melanoma
UACC-62 melanoma = tested on: UACC-62 melanoma
SK-MEL-5 melanoma = tested on: SK-MEL-5 melanoma
A498 renal = tested on: A498 renal
RXF 393 renal = tested on: RXF 393 renal
MOLT-4 leukemia = tested on: MOLT-4 leukemia
LOX IMVI melanoma = tested on: LOX IMVI melanoma
SF-539 CNS = tested on: SF-539 CNS
HT29 colon = tested on: HT29 colon
SR leukemia = tested on: SR leukemia
HOP-62 NSCLC = tested on: HOP-62 NSCLC
HL-60(TB) leukemia = tested on: HL-60(TB) leukemia
A549 NSCLC = tested on: A549 NSCLC
OVCAR-3 ovarian = tested on: OVCAR-3 ovarian
U251 CNS = tested on: U251 CNS
PC-3 prostate = tested on: PC-3 prostate
OVCAR-8 ovarian = tested on: OVCAR-8 ovarian
SW-620 colon = tested on: SW-620 colon
NCI-H226 lung = tested on: NCI-H226 lung
SK-MEL-2 melanoma = tested on: SK-MEL-2 melanoma
NCI-H522 lung = tested on: NCI-H522 lung
HS 578T breast = tested on: HS 578T breast
HCT-15 colon = tested on: HCT-15 colon
UO-31 renal = tested on: UO-31 renal
MDA-MB-231 breast = tested on: MDA-MB-231 breast
HCC-2998 colon = tested on: HCC-2998 colon
CAKI-1 renal = tested on: CAKI-1 renal
UACC-257 melanoma = tested on: UACC-257 melanoma
SNB-75 CNS = tested on: SNB-75 CNS
BT-549 breast = tested on: BT-549 breast
HOP-92 NSCLC = tested on: HOP-92 NSCLC
T-47D breast = tested on: T-47D breast
MALME-3M melanoma = tested on: MALME-3M melanoma
COLO 205 colon = tested on: COLO 205 colon
M14 melanoma = tested on: M14 melanoma
HCT-116 colon = tested on: HCT-116 colon
MCF7 breast = tested on: MCF7 breast
786-0 renal = tested on: 786-0 renal
K-562 leukemia = tested on: K-562 leukemia
NCI/ADR-RES ovarian = tested on: NCI/ADR-RES ovarian
TK-10 renal = tested on: TK-10 renal
SK-OV-3 ovarian = tested on: SK-OV-3 ovarian
KM12 colon = tested on: KM12 colon
SNB-19 CNS = tested on: SNB-19 CNS
SF-295 CNS = tested on: SF-295 CNS
MDA-MB-435 = tested on: MDA-MB-435

COc1cc(CSc2nc3ccc(C)cc3c(=O)n2-c2ccccc2)cc(OC)c1OC
GI50 (RPMI-8226 leukemia): 3.28 µM
TGI (RPMI-8226 leukemia): > 100 µM
GI50 (SN12C renal): 4.56 µM
TGI (SN12C renal): > 100 µM
GI50 (NCI-H460 lung): 2300 nM
TGI (NCI-H460 lung): > 100 µM
GI50 (IGROV1 ovarian): 3.36 µM
TGI (IGROV1 ovarian): > 100 µM
GI50 (NCI-H23 lung): 6.97 µM
TGI (NCI-H23 lung): > 100 µM
GI50 (CCRF-CEM leukemia): 2660 nM
TGI (CCRF-CEM leukemia): > 100 µM
GI50 (ACHN renal): 4.78 µM
TGI (ACHN renal): > 100 µM
GI50 (DU-145 prostate): 3.59 µM
TGI (DU-145 prostate): > 100 µM
GI50 (SF-268 CNS): 6.37 µM
TGI (SF-268 CNS): > 100 µM
GI50 (OVCAR-4 ovarian): 4.92 µM
TGI (OVCAR-4 ovarian): > 100 µM
GI50 (OVCAR-5 ovarian): 6.26 µM
TGI (OVCAR-5 ovarian): > 100 µM
GI50 (SK-MEL-28 melanoma): 2800 nM
TGI (SK-MEL-28 melanoma): > 100 µM
GI50 (UACC-62 melanoma): 1930 nM
TGI (UACC-62 melanoma): > 100 µM
GI50 (SK-MEL-5 melanoma): 435 nM
TGI (SK-MEL-5 melanoma): 19.9 µM
GI50 (A498 renal): 1920 nM
TGI (A498 renal): 9.15 µM
GI50 (RXF 393 renal): 1100 nM
TGI (RXF 393 renal): > 25.5 µM
GI50 (MOLT-4 leukemia): 3.85 µM
TGI (MOLT-4 leukemia): > 100 µM
GI50 (LOX IMVI melanoma): 4.13 µM
TGI (LOX IMVI melanoma): > 100 µM
GI50 (SF-539 CNS): 2080 nM
TGI (SF-539 CNS): 9.52 µM
GI50 (HT29 colon): 759 nM
TGI (HT29 colon): > 100 µM
GI50 (SR leukemia): 409 nM
TGI (SR leukemia): > 40.8 µM
GI50 (HOP-62 NSCLC): 2480 nM
TGI (HOP-62 NSCLC): > 100 µM
GI50 (HL-60(TB) leukemia): 1720 nM
TGI (HL-60(TB) leukemia): > 100 µM
GI50 (A549 NSCLC): 1590 nM
TGI (A549 NSCLC): > 100 µM
GI50 (OVCAR-3 ovarian): 1950 nM
TGI (OVCAR-3 ovarian): > 27.3 µM
GI50 (U251 CNS): 3.77 µM
TGI (U251 CNS): > 100 µM
GI50 (PC-3 prostate): 3.25 µM
TGI (PC-3 prostate): > 100 µM
GI50 (OVCAR-8 ovarian): 4.51 µM
TGI (OVCAR-8 ovarian): > 100 µM
GI50 (SW-620 colon): 910 nM
TGI (SW-620 colon): > 100 µM
GI50 (NCI-H226 lung): 3.4 µM
TGI (NCI-H226 lung): > 100 µM
GI50 (SK-MEL-2 melanoma): 3.52 µM
TGI (SK-MEL-2 melanoma): > 100 µM
GI50 (NCI-H522 lung): 1440 nM
TGI (NCI-H522 lung): > 25.3 µM
GI50 (HS 578T breast): 2160 nM
TGI (HS 578T breast): > 100 µM
GI50 (HCT-15 colon): 577 nM
TGI (HCT-15 colon): > 100 µM
GI50 (UO-31 renal): 3.67 µM
TGI (UO-31 renal): > 100 µM
GI50 (MDA-MB-231 breast): 2920 nM
TGI (MDA-MB-231 breast): > 100 µM
GI50 (HCC-2998 colon): 5.49 µM
TGI (HCC-2998 colon): > 100 µM
GI50 (CAKI-1 renal): 2790 nM
TGI (CAKI-1 renal): > 100 µM
GI50 (UACC-257 melanoma): 19.4 µM
TGI (UACC-257 melanoma): > 100 µM
GI50 (SNB-75 CNS): 328 nM
TGI (SNB-75 CNS): 2980 nM
GI50 (BT-549 breast): 5.28 µM
TGI (BT-549 breast): > 100 µM
GI50 (HOP-92 NSCLC): 1030 nM
TGI (HOP-92 NSCLC): 8.74 µM
GI50 (T-47D breast): 1560 nM
TGI (T-47D breast): > 100 µM
GI50 (MALME-3M melanoma): 3.73 µM
TGI (MALME-3M melanoma): > 100 µM
GI50 (COLO 205 colon): 576 nM
TGI (COLO 205 colon): 3.97 µM
GI50 (M14 melanoma): 1400 nM
TGI (M14 melanoma): > 100 µM
GI50 (HCT-116 colon): 1030 nM
TGI (HCT-116 colon): > 100 µM
GI50 (MCF7 breast): 548 nM
TGI (MCF7 breast): > 100 µM
GI50 (786-0 renal): 6.56 µM
TGI (786-0 renal): > 100 µM
GI50 (K-562 leukemia): 534 nM
TGI (K-562 leukemia): > 100 µM
GI50 (NCI/ADR-RES ovarian): 1260 nM
TGI (NCI/ADR-RES ovarian): > 100 µM
GI50 (TK-10 renal): 8.1 µM
TGI (TK-10 renal): > 100 µM
GI50 (SK-OV-3 ovarian): 1970 nM
TGI (SK-OV-3 ovarian): > 100 µM
GI50 (KM12 colon): 990 nM
TGI (KM12 colon): > 100 µM
GI50 (SNB-19 CNS): 13.8 µM
TGI (SNB-19 CNS): > 100 µM
GI50 (SF-295 CNS): 2410 nM
TGI (SF-295 CNS): 48 µM
GI50 (MDA-MB-435): 269 nM
TGI (MDA-MB-435): 896 nM
